Results taken from PMC9176744 (Science Advances, 2022).

Assays:
[1] = biological target: T1, DHS1^WT (Arabidopsis thaliana, UniProt P29976); assay: DHS enzyme assay; assay type: biochemical; details: for inhibition of DHS1 activity: screening of AAA-derived metabolites as potential inhibitors (Fig. 2D); for IC50: recombinant DHS1^WT, varied effector concentrations
[2] = biological target: T2, DHS2^WT (Arabidopsis thaliana, UniProt Q00218); assay: DHS enzyme assay; assay type: biochemical; details: for inhibition of DHS2 activity: screening of AAAs and AAA-derived metabolites as potential inhibitors (Fig. 2D); for IC50: recombinant DHS2^WT, varied effector concentrations; for inhibition at 1000 µM: read-out: inhibition of DHS2
T2 sequence (Q00218 34-507): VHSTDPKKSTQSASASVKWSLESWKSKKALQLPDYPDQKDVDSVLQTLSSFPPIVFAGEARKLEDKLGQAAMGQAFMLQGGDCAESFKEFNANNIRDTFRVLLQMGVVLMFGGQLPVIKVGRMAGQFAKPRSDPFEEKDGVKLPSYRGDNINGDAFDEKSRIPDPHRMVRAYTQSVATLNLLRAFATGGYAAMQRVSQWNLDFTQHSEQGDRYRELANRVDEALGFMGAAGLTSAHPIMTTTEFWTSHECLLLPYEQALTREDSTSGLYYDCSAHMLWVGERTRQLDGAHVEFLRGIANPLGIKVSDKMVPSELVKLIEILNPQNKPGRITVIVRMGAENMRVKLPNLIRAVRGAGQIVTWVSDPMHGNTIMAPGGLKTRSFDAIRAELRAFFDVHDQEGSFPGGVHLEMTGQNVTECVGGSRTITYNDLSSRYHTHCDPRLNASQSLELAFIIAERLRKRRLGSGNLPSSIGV

[3] = system: DHS3 (DHS^WT isoform); assay: DHS enzyme assay; assay type: biochemical, Arabidopsis thaliana; details: for inhibition of DHS3 WT activity: all DHS^WT isoforms
[4] = system: sota mutants (DHS enzymes); assay: DHS enzyme assay, sota mutant enzymes compared with corresponding WT enzymes; assay type: biochemical, Arabidopsis thaliana; details: nearly all of the sota mutants; maximum increase
[5] = system: DHS2^A11; assay: DHS enzyme assay, DHS2 with the sotaA11 mutation; details: for change in IC50 versus corresponding WT enzyme: DHS2^A11, the weakest sota allele; for inhibition of DHS2^A11 activity: concentration of up to 1 mM
[6] = system: Arabidopsis plants (Col-0, sotaB4, sotaA4); assay: Plant growth on media containing the effector
[7] = system: DHS2^A4; assay: DHS enzyme assay, DHS2 with the sotaA4 mutation; details: for inhibition of DHS2^A4 activity: concentration of up to 1 mM; for inhibition of DHS2^A4: similar IC50 values to DHS2^WT
[8] = biological target: T2, DHS2^WT; details: shown previously; cited from earlier work
[9] = system: DHS2^F1; assay: DHS enzyme assay, DHS2 with the sotaF1 mutation; details: concentration of up to 1 mM
[10] = system: DHS3 (DHS^WT isoform); details: shown previously; cited from earlier work
[11] = biological target: T1, DHS1^WT; details: shown previously; cited from earlier work
[12] = system: DHS1^B4; assay: DHS enzyme assay, DHS1 with the sotaB4 mutation; assay type: biochemical, Arabidopsis thaliana; details: comparable IC50 values to DHS1^WT
[13] = ILA feeding, media with 0, 250, 500 or 1000 μM, 3-week-old plants, fresh weight

T1 sequence (P29976 49-525): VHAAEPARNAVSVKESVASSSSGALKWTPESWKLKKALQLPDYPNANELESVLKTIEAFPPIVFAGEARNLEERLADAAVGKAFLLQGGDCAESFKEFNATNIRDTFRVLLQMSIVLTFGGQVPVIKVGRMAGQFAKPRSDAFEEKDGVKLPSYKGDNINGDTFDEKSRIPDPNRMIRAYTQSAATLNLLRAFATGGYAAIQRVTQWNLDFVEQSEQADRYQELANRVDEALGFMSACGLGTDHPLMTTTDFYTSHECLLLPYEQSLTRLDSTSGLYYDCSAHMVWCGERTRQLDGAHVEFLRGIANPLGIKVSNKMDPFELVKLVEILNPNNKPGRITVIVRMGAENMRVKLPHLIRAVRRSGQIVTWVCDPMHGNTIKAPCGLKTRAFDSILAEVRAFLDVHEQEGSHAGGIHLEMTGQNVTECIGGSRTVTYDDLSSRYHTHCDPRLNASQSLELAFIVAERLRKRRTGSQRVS

O=C(O)Cc1ccc(O)cc1 [4-hydroxyphenylacetate]
inhibition of DHS1 activity [1]: neither

Nc1ccccc1C(=O)[O-].[Na+] [Anthranilate]
inhibition of DHS2 activity [2]: slight reduction | inhibition of DHS1 activity [1]: did not affect the activity

O=C(O)Cc1cc(O)ccc1O [HGA, homogentisate]
IC50 [2]: 75 to 250 µM | inhibition of DHS2 activity [2]: effectively inhibited | inhibition of DHS3 WT activity [3]: effectively inhibited | IC50 ([3]; recombinant DHS3 WT, varied effector concentrations): 75 to 250 µM | IC50 [1]: 75 to 250 µM | inhibition of DHS1 activity [1]: effectively inhibited | increase in IC50 versus corresponding WT enzymes [4]: ≤ 12 fold | change in IC50 versus corresponding WT enzyme [5]: no significant change

O=C(O)C(=O)Cc1ccc(O)cc1 [HPP, 4-Hydroxyphenylpyruvate]
inhibition of DHS3 WT activity [3]: effectively inhibited | increase in IC50 versus corresponding WT enzymes [4]: up to 7 fold | change in IC50 versus corresponding WT enzyme [5]: no significant change

O=C(O)C(O)Cc1c[nH]c2ccccc12 (stereo not shown) [ILA, Indole-3-lactate]
inhibition of DHS2 activity [2]: reduced the activity | effect on growth of Col-0 WT plants [6, 13]: growth inhibition | growth inhibition in sotaB4 mutant plants versus Col-0 [6, 13]: significantly weakened | inhibition of DHS1 activity [1]: reduced the activity

O=C(O)C(=O)Cc1c[nH]c2ccccc12 [IPA, indole-3-pyruvate]
IC50 [2]: 58 µM | inhibition of DHS2 activity [2]: inhibit | effect on plant growth ([6]; independent of genotypes, even at very low concentration (<10 μM)): impaired plant growth | IC50 [1]: 241 µM | inhibition of DHS1 activity [1]: inhibit

O=C(O)C(=O)Cc1ccccc1 [PPY, phenylpyruvate]
inhibition of DHS1 activity [1]: neither

N[C@@H](Cc1c[nH]c2ccccc12)C(=O)O [Trp, tryptophan]
inhibition of DHS2^A4 activity [7]: not inhibited | inhibition of DHS2 [8]: inhibit | inhibition of DHS2^F1 activity [9]: not inhibited | inhibition of DHS2^A11 activity [5]: not inhibited

N[C@@H](Cc1ccc(O)cc1)C(=O)O [Tyr, L-tyrosine]
inhibition of DHS2^A4 activity [7]: not inhibited | inhibition of DHS2^F1 activity [9]: not inhibited | inhibition of DHS2^A11 activity [5]: not inhibited

OCCc1ccc(O)cc1 [Tyrosol]
inhibition at 1000 µM [2]: ~30%

N[C@@H](CC1(C(=O)O)C=CC(O)C=C1)C(=O)O (stereo partly shown) [arogenate]
inhibition of DHS2^A4 [7]: still inhibited | inhibition of DHS2 [8]: slightly inhibit

O=C(O)/C=C/c1ccc(O)c(O)c1 [caffeate]
inhibition of DHS3 [10]: strongly inhibit | inhibition of DHS1 [11]: strongly inhibit | inhibition of DHS1^B4 [12]: still strongly inhibited | inhibition of DHS2^A4 [7]: still inhibited | inhibition of DHS2 [8]: strongly inhibit

C=C(O[C@@H]1C=C(C(=O)O)C=C[C@H]1O)C(=O)O [chorismate]
inhibition of DHS3 [10]: strongly inhibit | inhibition of DHS1 [11]: strongly inhibit | inhibition of DHS1^B4 [12]: still strongly inhibited | inhibition of DHS2^A4 [7]: still inhibited | inhibition of DHS2 [8]: strongly inhibit

c1ccc2[nH]ccc2c1 [indole]
inhibition of DHS1 activity [1]: did not affect the activity

O=C(O)C(=O)CC1(C(=O)O)C=CC(O)C=C1 (stereo not shown) [prephenate]
inhibition of DHS2^A4 [7]: still inhibited | inhibition of DHS2 [8]: slightly inhibit

O=C(O)C1=C[C@@H](O)[C@@H](O)[C@H](O)C1 [shikimate]
inhibition of DHS2^A4 [7]: still inhibited | inhibition of DHS2 [8]: slightly inhibit

NCCc1c[nH]c2ccccc12 [tryptamine]
inhibition of DHS2 activity [2]: slight reduction | inhibition of DHS1 activity [1]: did not affect the activity

NCCc1ccc(O)cc1 [tyramine]
inhibition at 1000 µM [2]: ~30%
